Reference: patent US12180187B2, “1-phenyl-5-azinylpyrazolyl-3-oxyalkyl acids and their use for controlling unwanted plant growth” (BAYER AKTIENGESELLSCHAFT, priority 2019, dated 2024)

Key:
MATIN = assay: Pre-emergence action at 320 g/ha against MATIN; format: in vivo, Tripleurospermum inodorum (Matricaria inodora); conditions: visual scoring after about 3 weeks vs untreated controls
Outline: (§1)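 Weed and crop seeds sown in pots and covered with soil; WP or EC formulations sprayed pre-emergence onto the soil surface at 320 g/ha with 0.5% additive in 600 l/ha water. Kept in greenhouse; after about 3 weeks activity scored visually as % versus untreated controls (100% = plants dead, 0% = as control).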

SETVI [1] = assay: Pre-emergence action at 320 g/ha against SETVI; format: in vivo, Setaria viridis; conditions: visual scoring after about 3 weeks vs untreated controls
Outline: as §1

POLCO [2] = assay: Pre-emergence action at 320 g/ha against POLCO; format: in vivo, Fallopia convolvulus (Polygonum convolvulus); conditions: visual scoring after about 3 weeks vs untreated controls
Outline: as §1

LOLRI = assay: Pre-emergence action at 320 g/ha against LOLRI; format: in vivo, Lolium rigidum; conditions: visual scoring after about 3 weeks vs untreated controls
Outline: as §1

VERPE = assay: Pre-emergence action at 320 g/ha against VERPE; format: in vivo, Veronica persica; conditions: visual scoring after about 3 weeks vs untreated controls
Outline: as §1

AVEFA [3] = assay: Pre-emergence action at 320 g/ha against AVEFA; format: in vivo; conditions: visual scoring after about 3 weeks vs untreated controls
Outline: as §1

ECHGC = assay: Pre-emergence action at 320 g/ha against ECHGC; format: in vivo, Echinochloa crus-galli; conditions: visual scoring after about 3 weeks vs untreated controls
Outline: as §1

PHBPU = assay: Pre-emergence action at 320 g/ha against PHBPU; format: in vivo; conditions: visual scoring after about 3 weeks vs untreated controls
Text: b) Seeds of monocotyledonous and dicotyledonous weed plants and crop plants are placed in plastic or organic planting pots and covered with soil. The compounds of the invention, formulated in the form of wettable powders (WP) or as emulsion concentrates (EC), are then applied onto the surface of the covering soil as aqueous suspension or emulsion with addition of 0.5% additive at a water application rate of 600 l/ha (converted). After the treatment, the pots are placed in a greenhouse and kept under good growth conditions for the trial plants. After about 3 weeks, the effect of the preparations is scored visually in comparison with untreated controls as percentages. For example, 100% activity=the plants have died, 0% activity=like control plants. Tables 13 to 26 below show the effects of selected compounds of the general formula (I) on various harmful plants and at an application rate corresponding to 320 g/ha, which were obtained by the experimental procedure mentioned above.

AMARE [4] = assay: Pre-emergence action at 320 g/ha against AMARE; format: in vivo, Amaranthus retroflexus; conditions: visual scoring after about 3 weeks vs untreated controls
Outline: as §1

ALOMY [5] = assay: Pre-emergence action at 320 g/ha against ALOMY; format: in vivo, Alopecurus myosuroides; conditions: scored visually after about 3 weeks vs untreated controls (100% = plants have died)
Outline: as §1

VIOTR [6] = assay: Pre-emergence action at 320 g/ha against VIOTR; format: in vivo, Viola tricolor; conditions: dosage 320 g/ha
Outline: as §1

VIOTR [7] = assay: Post-emergence action at 320 g/ha against VIOTR; format: in vivo, Viola tricolor; conditions: Viola tricolor, 504 h, visual rating about 3 weeks after treatment vs untreated controls
Text: (§2) Accordingly, the compounds of the invention have good herbicidal action against a broad spectrum of weed grasses and broad-leaved weeds and are therefore suitable for controlling unwanted vegetation by the post-emergence method. • b) Seeds of monocotyledonous and dicotyledonous weeds and crop plants are placed in sandy loam in plastic or organic planting pots, covered with soil and cultivated in a greenhouse under controlled growth conditions. 2 to 3 weeks after sowing, the test plants are treated at the one-leaf stage. The compounds of the invention, formulated in the form of wettable powders (WP) or as emulsion concentrates (EC), are then sprayed onto the green parts of the plants as aqueous suspension or emulsion with addition of 0.5% additive at a water application rate of 600 l/ha (converted). After the test plants have been kept in the greenhouse under optimum growth conditions for about 3 weeks, the activity of the preparations is rated visually in comparison to untreated controls. For example, 100% activity=the plants have died, 0% activity=like control plants. Tables 39 to 49 below show the effects of selected compounds of the general formula (I) according to Tables 1 and 2 on various harmful plants and at an application rate corresponding to 320 g/ha, which were obtained by the experimental procedure mentioned above.

AVEFA [8] = assay: Post-emergence action at 320 g/ha against AVEFA; format: in vivo; conditions: Avena fatua, 504 h, visual rating about 3 weeks after treatment vs untreated controls
Text: as §2

ECHCG = assay: Post-emergence action at 320 g/ha against ECHCG; format: in vivo, Echinochloa crus-galli; conditions: dosage 320 g/ha, visual rating about 3 weeks after treatment vs untreated controls (100% = plants died)
Text: as §2

AMARE [9] = assay: Post-emergence action at 320 g/ha against AMARE; format: in vivo, Amaranthus retroflexus; conditions: Amaranthus retroflexus, 504 h, visual rating about 3 weeks after treatment vs untreated controls
Text: as §2

SETVI [10] = assay: Post-emergence action at 320 g/ha against SETVI; format: in vivo, Setaria viridis; conditions: visual rating about 3 weeks after treatment vs untreated controls
Text: as §2

DIGSA [11] = assay: Pre-emergence action at 320 g/ha against DIGSA; format: in vivo, Digitaria sanguinalis; conditions: Digitaria sanguinalis, 504 h, visual scoring after about 3 weeks vs untreated controls
Outline: as §1

ALOMY [12] = assay: Post-emergence action against ALOMY, 320 g/ha; format: in vivo, Alopecurus myosuroides; conditions: dosage 320 g/ha, visual rating about 3 weeks after treatment vs untreated controls (100% = plants died)
Text: as §2

POLCO [13] = assay: Post-emergence action at 320 g/ha against POLCO; format: in vivo, Fallopia convolvulus (Polygonum convolvulus); conditions: Fallopia convolvulus, 504 h, visual rating about 3 weeks after treatment vs untreated controls
Text: as §2

DIGSA [14] = assay: Post-emergence action at 320 g/ha against DIGSA; format: in vivo, Digitaria sanguinalis; conditions: Digitaria sanguinalis, 504 h, dosage 320 g/ha, visual rating about 3 weeks after treatment vs untreated controls (100% = plants died)
Text: as §2

`CCOC(=O)CN(C)S(=O)(=O)NC(=O)COc1nn(-c2ccccc2F)c(-c2cncc(F)c2)c1Br` [Example X-041] was tested. Which “Pre-emergence action against MATIN in %” value (MATIN) did it give?
Its value is 90%.

And the “Pre-emergence action against SETVI in %” value (SETVI [1])?
Its value is 90%.

And the “Pre-emergence action against POLCO in %” value (POLCO [2])?
Its value is 90%.

And the “Pre-emergence action against LOLRI in %” value (LOLRI)?
The value was 90%.

What about the “Pre-emergence action against VERPE in %” value (VERPE) of the same compound?
Its value is 100%.

What about the “Pre-emergence action against AVEFA in %” value (AVEFA [3]) of the same compound?
The value was 80%.

What about the “Pre-emergence action against ECHGC in %” value (ECHGC) of the same compound?
The value was 80%.

What about the “Pre-emergence action against PHBPU in %” value (PHBPU) of the same compound?
Its value is 90%.

What about the “Pre-emergence action against AMARE in %” value (AMARE [4]) of the same compound?
Its value is 90%.

And the “Pre-emergence action at 320 g/ha against ALOMY in %” value (ALOMY [5])?
Its value is 100%.

And the “Pre-emergence action against VIOTR in %” value (VIOTR [6])?
The value was 100%.

For `COC(=O)[C@@H](C)Oc1nn(-c2ccccc2F)c(-c2ccc(F)nc2)c1Br` [VII-004, Methyl (2R)-2-{[4-bromo-1-(2-fluorophenyl)-5-(6-fluoropyridin-3-yl)-1H-pyrazol-3-yl]oxy}propanoate], which pest or weed control at 320 g/ha (MATIN; Tripleurospermum inodorum, 504 h) is on record?
The pest or weed control at 320 g/ha was 80%.

And the pest or weed control at 320 g/ha (SETVI [1]; Setaria viridis, 504 h)?
The pest or weed control at 320 g/ha was 100%.

And the pest or weed control at 320 g/ha (POLCO [2]; Fallopia convolvulus, 504 h)?
Its pest or weed control at 320 g/ha is 90%.

And the pest or weed control at 320 g/ha (LOLRI; Lolium rigidum, 504 h)?
The pest or weed control at 320 g/ha was 80%.

And the pest or weed control at 320 g/ha (VIOTR [7])?
The pest or weed control at 320 g/ha was 90%.

What about the pest or weed control at 320 g/ha (AMARE [4]; Amaranthus retroflexus, 504 h) of the same compound?
The pest or weed control at 320 g/ha was 90%.

What about the pest or weed control at 320 g/ha (AVEFA [8]) of the same compound?
The pest or weed control at 320 g/ha was 90%.

And the “Post-emergence action at 320 g/ha against ECHCG in %” value (ECHCG)?
The value was 90%.

And the pest or weed control at 320 g/ha (AMARE [9])?
Its pest or weed control at 320 g/ha is 90%.

What about the “Post-emergence action against SETVI in %” value (SETVI [10]) of the same compound?
The value was 90%.

What about the pest or weed control at 320 g/ha (DIGSA [11]) of the same compound?
Its pest or weed control at 320 g/ha is 100%.

And the “Post-emergence action against ALOMY” value (ALOMY [12])?
The value was 90%.

And the pest or weed control at 320 g/ha (POLCO [13])?
Its pest or weed control at 320 g/ha is 80%.

And the pest or weed control at 320 g/ha (DIGSA [14])?
The pest or weed control at 320 g/ha was 90%.

What about the pest or weed control at 320 g/ha (ALOMY [5]; Alopecurus myosuroides, 504 h) of the same compound?
The pest or weed control at 320 g/ha was 90%.

What about the pest or weed control at 320 g/ha (VIOTR [6]; Viola tricolor, 504 h) of the same compound?
The pest or weed control at 320 g/ha was 100%.
